From ChEMBL document CHEMBL3272044, “Cholinergic compounds. 9. Cyclohexane analogues of deoxamuscarine and derivatives” (J Med Chem, 1977)

Species: Cavia porcellus
Assay: Activity at muscarinic receptor in guinea pig terminal ileum assessed as compound required for 50% effect relative to acetylcholine
Format: tissue-based

`C[N+](C)(C)C[C@H]1CCC(=O)C1` showed a Ratio of 50.

Compound `C[C@H]1C[C@H](C[N+](C)(C)C)C[C@H]1O` has a Ratio of 454.

With `C[C@@H]1C[C@H](C[N+](C)(C)C)C[C@H]1O` the Ratio was 9.8.

Compound `C[N+](C)(C)C[C@H]1CCC[C@H](O)C1` (relative stereo) has a Ratio of 2900.

For `C[N+](C)(C)C[C@@H]1CC=CCC1`, the Ratio was 269.

For `C[N+](C)(C)C[C@H]1CC[C@H](O)C1`, the Ratio was 221.

In the case of `C[C@@H]1C[C@H](C[N+](C)(C)C)C[C@@H]1O`, the Ratio is reported as 500.

For `C[N+](C)(C)CC1CCCCC1`, the Ratio was 203.

For `C[C@H]1C[C@H](C[N+](C)(C)C)C[C@@H]1O`, the Ratio was 100.

In the case of `C[N+](C)(C)C[C@H]1CCC[C@@H](O)C1` (relative stereo), the Ratio is reported as > 10000.

For `C[N+](C)(C)C[C@H]1CC[C@@H](O)C1`, the Ratio was 3590.

Work on `C[N+](C)(C)C[C@H]1CCCC(=O)C1` yielded a Ratio of 507.

For `CC1C[C@H](C[N+](C)(C)C)CC1=O` (some centres not stated), the Ratio was 0.5.

With `C[N+](C)(C)CC1CC=CC1` the Ratio was 11.

In the case of `C[N+](C)(C)CC1CCCC1`, the Ratio is reported as 16.

`C[C@H]1CC[C@@H](C[N+](C)(C)C)C1` showed a Ratio of 100.

With `CC1=CC[C@@H](C[N+](C)(C)C)C1` the Ratio was 30.
